This note sets out measurements from article PMC7948977 (The Journal of Biological Chemistry, 2020).

Test [1] concerns the target T1, ASFV dUTPase (African swine fever virus, UniProt Q65199). The experiment in a line: biochemical. The test is classed as binding.
The target of test [2] is T1, ASFV dUTPase. The test is classed as biochemical.
The test system of test [3] is swine dUTPase. The class given is biochemical.

T1 sequence (Q65199 whole entry, looked up): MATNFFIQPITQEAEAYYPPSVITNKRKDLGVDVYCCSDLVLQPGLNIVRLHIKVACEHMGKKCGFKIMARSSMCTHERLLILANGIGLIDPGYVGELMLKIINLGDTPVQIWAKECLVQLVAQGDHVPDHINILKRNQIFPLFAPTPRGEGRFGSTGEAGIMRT

Regarding `O=c1ccn(CCCCNC(c2ccccc2)(c2ccccc2)c2ccccc2)c(=O)[nH]1` [compound 1], in test [1], binding was characterised by a dissociation constant (Kd) of 15.6 µM and the mode of inhibition entry is given as “competitive inhibitor”. Further, in test [2], the “inhibition of enzyme activity of ASFV dUTPase” value was “dose-dependent manner”. For the same compound, in test [3], the “selectivity of inhibitory activity for ASFV dUTPase over swine dUTPase” value is “selective for ASFV dUTPase over swine dUTPase”.
Regarding `O=c1ccn(CCCCOC(c2ccccc2)(c2ccccc2)c2ccccc2)c(=O)[nH]1` [compound 2], in test [1], the Kd – broadly, a measure of binding affinity in units of concentration – is listed as “cannot be calculated”. Besides, the “inhibition of enzyme activity of ASFV dUTPase” value in test [2] was “dose-dependent manner”.
